Read-outs that look alike come from different tables or passages of the source.
What was measured:
Female CFLP mice [1] = assay: Hypoglycaemic activity: blood glucose of fasted mice after subcutaneous glucose; format: in vivo; details: Mus musculus, 2 hour period after glucose, vs control mice given water, read-out: REDUCTION IN AREA UNDER BLOOD GLUCOSE CURVE (%); for inhibition in vivo at 1 µmol/kg: 1.0 μ mol/kg oral
Protocol: Female CFLP mice, weighing approximately 25 g, were fasted for 24 hours prior to the study. The compounds under study were administered orally as an aqueous solution to each of 8 mice. 30 minutes later a blood sample ([…]) was obtained from the tail for the analysis of blood glucose. Immediately after taking this blood sample, glucose (1 g/kg body weight) was administered subcutaneously to each mouse. 8 mice were given water as a control. Blood samples were then obtained from each mouse at 30 minute intervals for 120 minutes.
Compounds that produced a significant (P<0.05) reduction on blood glucose, compared with control mice given water, at any time interval, were considered active. The area under the blood glucose curve over the 2 hour period after the administration of the glucose was calculated for each compound and compared with the value for control animals.

rat ear = assay: Topical anti-inflammatory activity: croton oil inflammation of the rat ear; format: in vivo; details: 6 hours, activity = significant (5% level) reduction in ear weight vs non-drug treated control
Protocol: The method used is based on that described by G. Tonelli et al (Endocrinology, 77, 625-634, 1965). An inflammation is induced in the rat ear by the application of 50 μl of a 1% solution of croton oil in tetrahydrofuran, test compounds being dissolved in the irritant vehicle. After 6 hours the inflammation is assessed by killing the animals and weighing the ears. Topical anti-inflammatory activity of a compound is generally considered to be shown when a significant (5% level) reduction in ear weight is seen compared to non-drug treated control.

Female CFLP mice [2] = assay: Effect on energy expenditure and food intake of mice; format: in vivo; details: Mus musculus, % of mice dosed with water; for response vs control in vivo at 18.5 mg/kg: 18.5 mg/kg po; for response vs control in vivo at 22.2 mg/kg: 22.2 mg/kg po; for response vs control in vivo at 24.5 mg/kg: 24.5 mg/kg po
Protocol: Female CFLP mice each weighing approximately 24 g were given food and water ad lib before and during the experiment. The compounds were dissolved in water by addition of one mole of hydrochloric acid per mole of compound and these solutions were administered orally to each of 12 mice. A further 12 mice were dosed orally with water. The mice were placed in boxes through which air was drawn and the oxygen content of the air leaving the boxes was measured. The energy expenditure of the mice was calculated for 21 hours after dosing from the volume of air leaving the boxes and its oxygen content following the principles described by J. B. de V. Weir, J. Physiol. […] The food intake of the mice was measured over this same period of 21 hours. The results are expressed as a percentage of the mean food intake or rate of energy expenditure of the mice dosed with water.

Rat hearts = assay: Cardiac activity: rat hearts perfused by the Langendorff procedure
Protocol: Rat hearts were perfused by the Langendorff procedure.
Hearts were dissected free within 30 seconds of death and reverse perfused via the aorta and coronary vessels with Krebs-Ringer bicarbonate solution (pH 7.4, 37° C.) gassed with 95% oxygen: 5% carbon dioxide at a flow rate between 8-12 cm^3 /minute. Responses were observed after injection of drug dissolved in isotonic saline into the perfusion media.
Results are expressed as a percentage of the maximum response due to salbutamol.

[3] = tested on: Platelet aggregation (response to collagen); assay: Platelet aggregation inhibition activity: response to intravenous collagen in mice; format: in vivo; details: 1 μ mol/kg po; two hours before collagen 400 μg/kg i.v.
Protocol: Male CFLP mice (ca 20 g, n=8) were dosed orally with compound or vehicle (controls) after an overnight fast. Two hours later each mouse received an intravenous dose of collagen (400 μg/kg, pH 6-6.6). Exactly 30 sec. after injection of collagen, each mouse was placed in a chamber of CO2 until respiration ceased. […] Each concentration was expressed as a percent of that obtained in a tail blood sample taken immediately before injection of collagen.

genetically obese mice = assay: Anti-obesity activity: carcass lipid of genetically obese mice after oral gavage daily for 28 days; format: in vivo; details: 12.2 mg/kg p.o. daily for 28 days, control 18.75
Protocol: The compound of Example 5 was administered by oral gavage in water or carboxymethyl-cellulose suspension to genetically obese mice daily for 28 days. At the end of the time the carcass composition was determined.

[4] = 0-3h, read-out: MEAN ENERGY EXPENDITURE (%) 0-3h
[5] = 0-21h, read-out: MEAN ENERGY EXPENDITURE (%) 0-21h
[6] = over 21 hours, read-out: MEAN FOOD INTAKE (%)
[7] = 30 μg added to perfusate, percentage of the maximum response due to salbutamol, read-out: HEART RATE
[8] = 30 μg added to perfusate, percentage of the maximum response due to salbutamol, read-out: HEART TENSION

Compound | inhibition in vivo at 3 µmol/kg (Female CFLP mice [1]; 3.0 μ mol/kg oral) | ACTIVITY (topical anti-inflammatory) (rat ear; 2 mg/rat ear topical) | response vs control in vivo at 18.5 mg/kg (Female CFLP mice [2]; [4]) | response vs control in vivo at 18.5 mg/kg (Female CFLP mice [2]; [5]) | response vs control in vivo at 18.5 mg/kg (Female CFLP mice [2]; [6]) | Emax (Rat hearts; [7]) | Emax (Rat hearts; [8]) | inhibition in vivo at 1 µmol/kg (Female CFLP mice [1]) | ACTIVITY (topical anti-inflammatory) (rat ear; 0.5 mg/rat ear topical) | response vs control in vivo at 22.2 mg/kg (Female CFLP mice [2]; [4]) | response vs control in vivo at 22.2 mg/kg (Female CFLP mice [2]; [5]) | response vs control in vivo at 22.2 mg/kg (Female CFLP mice [2]; [6]) | Emax (Rat hearts; read-out: HEART TENSION) | % INHIBITION OF RESPONSE TO COLLAGEN [3] | response vs control in vivo at 24.5 mg/kg (Female CFLP mice [2]; [4]) | response vs control in vivo at 24.5 mg/kg (Female CFLP mice [2]; [5]) | response vs control in vivo at 24.5 mg/kg (Female CFLP mice [2]; [6]) | g LIPID/MOUSE, TREATED (genetically obese mice)
CC(Cc1ccc(OCCO)cc1)NCC(O)c1ccccc1F (stereo not shown) [Example 1, N-[2-(4-(2-Hydroxyethoxy)phenyl)-1-methylethyl]-2-hydroxy-2-(2-fluorophenyl)ethanamine] | 61% | Active | 176% | 128% | 70% | 63% | 53% |  |  |  |  |  |  |  |  |  |  | 
CC(Cc1ccc(OCCCO)cc1)NCC(O)c1cccc(C(F)(F)F)c1 (stereo not shown) [Example 4, N-[2-(4-(3-Hydroxypropoxy)phenyl)-1-methylethyl]-2-hydroxy-2-(3-trifluoromethylphenyl)-ethanamine] |  |  |  |  |  | 7% |  | 31% | Active | 179% | 121% | 75% | 0% |  |  |  |  | 
CC(Cc1ccc(OCCCCCCO)cc1)NCC(O)c1cccc(C(F)(F)F)c1 (stereo not shown) [Example 5, N-[2-(4-(6-Hydroxyhexyloxy)phenyl)-1-methylethyl]-2-hydroxy-2-(3-trifluoromethylphenyl)-ethanamine] |  |  |  |  |  | 0% | 0% | 59% |  |  |  |  |  | 47% | 213% | 129% | 103% | 15.80 g LIPID/MOUSE

Reference: patent publication US4382958A, “Secondary amines and compositions for treatment of hypoglycaemia or obesity” (priority 1980, dated 1983)
